Assay results as given in patent publication US5247084A, “Derivatives of p-guanidinobenzoic acid” (priority 1985, dated 1993).

Biological target: T1, elastase from human neutrophil (Homo sapiens, UniProt P08246)
T1 construct: using elastase from human neutrophil; from tissue; host or cells: human neutrophil
T1 sequence (P08246 30-247 limits assumed): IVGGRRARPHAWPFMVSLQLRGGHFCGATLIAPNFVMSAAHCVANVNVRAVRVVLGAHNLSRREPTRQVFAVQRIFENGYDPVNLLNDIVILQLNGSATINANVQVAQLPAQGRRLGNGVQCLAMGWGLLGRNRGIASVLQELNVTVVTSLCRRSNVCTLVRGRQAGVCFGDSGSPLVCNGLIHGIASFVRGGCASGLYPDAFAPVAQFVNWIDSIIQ
Test: Inhibitory effect on elastase (spectrophotometric method, substrate Suc-Ala-Pro-Ala-pNA)
Type: biochemical
Conditions: Y represents an oxygen atom; for IC50: pH 8.0, 37° C., 30 minutes, read-out: Inhibitory Effect on Elastase, IC50
Procedure: The test was carried out by the slight modification of the method of Bieth et al [see Biochem. Med., 75, 350 (1974)] using elastase from human neutrophil.
The reaction mixture consisted of 1 mM Suc-Ala-Pro-Ala-pNA (dissolving in N-methylpyrrolidone to the concentration of 100 mM, and then adding 1/100 amount of the solution to the reaction mixture.), 0.1 M buffer solution of tris-hydrochloric acid (pH 8.0), 0.2 M sodium chloride aqueous solution, the sample solution of various concentrations and enzyme solution in a final volume of 1.0 ml was incubated at 37° C. for 30 minutes.
The reaction was stopped by the addition of 100 μl of 50% acetic acid into the reaction mixture, and then p-nitro anilide released was measured on absorbance of 405 nm.
Inhibition percentage of the test compounds was caliculated by the following equation: [formula]

Structure (SMILES)	IC50 [µM]	inhibition at 100 µM [%]	inhibition at 50 µg/mL (at 50 μg/ml (footnote 2), read-out: Inhibitory Effect on Elastase, Inhibition %) [%]
Cc1ccc(OC(=O)c2ccc(NC(=N)N)cc2)cc1 [Example 4-methyl, reference compound]	–	28.4	–
Cc1cc(C)cc(OC(=O)c2ccc(NC(=N)N)cc2)c1 [Example 5]	–	46.2	–
COc1ccccc1OC(=O)c1ccc(NC(=N)N)cc1 [Example 7]	–	23.1	–
COc1ccc(OC(=O)c2ccc(NC(=N)N)cc2)cc1 [Example 9]	–	44.4	–
COc1cc(OC)cc(OC(=O)c2ccc(NC(=N)N)cc2)c1 [Example 10]	40	–	–
CCS(=O)(=O)Oc1cc(COC)cc(OC(=O)c2ccc(NC(=N)N)cc2)c1 [Example 11]	60	66	–
COCc1cc(O)cc(OC(=O)c2ccc(NC(=N)N)cc2)c1 [Example 12]	> 200	14	–
COCc1cc(OC(=O)c2ccc(NC(=N)N)cc2)cc(OC(=O)c2ccc(NC(=N)N)cc2)c1 [Example 13]	9.1	89	–
COC(=O)c1ccc(Cl)cc1OC(=O)c1ccc(NC(=N)N)cc1 [Example 17]	5.8	92.2	–
COC(=O)c1cc(Cl)cc(OC(=O)c2ccc(NC(=N)N)cc2)c1 [Example 18]	1.8	–	–
CC(C)OC(=O)c1cc(OC(=O)c2ccc(NC(=N)N)cc2)cc(C(=O)OC(C)C)c1 [Example 19]	–	5.2	–
CC(C)OC(=O)c1ccc(Cl)cc1OC(=O)c1ccc(NC(=N)N)cc1 [Example 20]	14	–	–
CC(C)OC(=O)c1cccc(OC(=O)c2ccc(NC(=N)N)cc2)c1Cl [Example 21]	2	–	–
CCC(C)OC(=O)c1cccc(OC(=O)c2ccc(NC(=N)N)cc2)c1Cl (centres unmarked) [Example 22]	2.6	–	–
COC(=O)Cc1cccc(OC(=O)c2ccc(NC(=N)N)cc2)c1 [Example 23]	–	15.6	–
COC(=O)Cc1ccc(OC(=O)c2ccc(NC(=N)N)cc2)c(Cl)c1 [Example 25]	–	40	–
COC(=O)Cc1ccc(OC(=O)c2ccc(NC(=N)N)cc2)cc1Cl [Example 26]	–	13.3	–
COC(=O)C=Cc1ccc(OC(=O)c2ccc(NC(=N)N)cc2)cc1 [Example 27]	–	31	–
N=C(N)Nc1ccc(C(=O)Oc2c(F)c(F)c(F)c(F)c2F)cc1 [Example 33]	5.8	92.1	–
COc1cc(Cl)cc(OC(=O)c2ccc(NC(=N)N)cc2)c1 [Example 39]	2.4	91.1	–
N=C(N)Nc1ccc(C(=O)Oc2ccccc2C(F)(F)F)cc1 [Example 45]	23	72.4	–
N=C(N)Nc1ccc(C(=O)Oc2cccc(C(F)(F)F)c2)cc1 [Example 46]	13	71.4	–
N=C(N)Nc1ccc(C(=O)Oc2cc(C(F)(F)F)cc(C(F)(F)F)c2)cc1 [Example 47]	3.2	–	–
COc1ccc(C(C)=O)c(OC(=O)c2ccc(NC(=N)N)cc2)c1 [Example 49]	40	–	–
CCCOc1ccc(C(C)=O)c(OC(=O)c2ccc(NC(=N)N)cc2)c1 [Example 50]	54	–	–
CCC(=O)c1ccc(Cl)cc1OC(=O)c1ccc(NC(=N)N)cc1 [Example 52]	1.6	–	–
CC(C)C(=O)c1ccc(Cl)cc1OC(=O)c1ccc(NC(=N)N)cc1 [Example 53]	6.5	–	–

Structure (SMILES)	IC50 [µM]	inhibition at 100 µM [%]	inhibition at 50 µg/mL (at 50 μg/ml (footnote 2), read-out: Inhibitory Effect on Elastase, Inhibition %) [%]
N=C(N)Nc1ccc(C(=O)Oc2cccc(C(=O)c3ccccc3)c2)cc1 [Example 54]	92	–	–
N=C(N)Nc1ccc(C(=O)Oc2ccc(C(=O)c3ccccc3)cc2)cc1 [Example 55]	–	33.3	–
N=C(N)Nc1ccc(C(=O)Oc2ccc(C(=O)c3ccccc3)cc2Cl)cc1 [Example 56]	48	57.1	–
N=C(N)Nc1ccc(C(=O)Oc2ccc(C(=O)c3ccccc3)c(Cl)c2Cl)cc1 [Example 57]	–	50.5	–
N=C(N)Nc1ccc(C(=O)Oc2cc(Cl)ccc2C(=O)CC2CCCC2)cc1 [Example 58]	1.9	–	–
CC(=O)Oc1cccc(OC(=O)c2ccc(NC(=N)N)cc2)c1 [Example 59]	–	25.7	–
CC(=O)Oc1ccc(OC(=O)c2ccc(NC(=N)N)cc2)cc1 [Example 60]	–	27.8	–
CC(=O)Oc1cc(Cl)cc(OC(=O)c2ccc(NC(=N)N)cc2)c1 [Example 61]	0.48	–	–
CCC(=O)Oc1cc(Cl)cc(OC(=O)c2ccc(NC(=N)N)cc2)c1 [Example 62]	0.38	–	–
N=C(N)Nc1ccc(C(=O)Oc2cccc(OC(=O)c3ccccc3)c2)cc1 [Example 63]	11	78.3	–
N=C(N)Nc1ccc(C(=O)Oc2cccc(OC(=O)c3ccc(NC(=N)N)cc3)c2)cc1 [Example 64]	15	–	–
N=C(N)Nc1ccc(C(=O)Oc2cc(OC(=O)c3ccc(NC(=N)N)cc3)cc(OC(=O)c3ccc(NC(=N)N)cc3)c2)cc1 [Example 65]	–	38	–
CC(=O)c1cc(OC(=O)c2ccc(NC(=N)N)cc2)cc(OC(=O)c2ccc(NC(=N)N)cc2)c1 [Example 66]	72	–	–
COC(=O)c1cc(OC(=O)c2ccc(NC(=N)N)cc2)cc(OC(=O)c2ccc(NC(=N)N)cc2)c1 [Example 67]	70	–	–
N=C(N)Nc1ccc(C(=O)Oc2cc(Cl)cc(OC(=O)c3ccc(NC(=N)N)cc3)c2)cc1 [Example 68]	0.6	–	–
COc1cc(OC(=O)c2ccc(NC(=N)N)cc2)cc(OC(=O)c2ccc(NC(=N)N)cc2)c1 [Example 69]	1.6	–	–
Cc1cc(OC(=O)c2ccc(NC(=N)N)cc2)cc(OC(=O)c2ccc(NC(=N)N)cc2)c1 [Example 70]	6.4	–	–
CC(=O)OCc1cc(Cl)cc(OC(=O)c2ccc(NC(=N)N)cc2)c1 [Example 71]	3	–	–
CS(=O)(=O)c1ccc(OC(=O)c2ccc(NC(=N)N)cc2)cc1 [Example 72]	> 100	–	–
COc1cc(OC(=O)c2ccc(NC(=N)N)cc2)cc(OS(C)(=O)=O)c1 [Example 73]	4.7	–	–
CS(=O)(=O)Oc1cc(Cl)cc(OC(=O)c2ccc(NC(=N)N)cc2)c1 [Example 74]	1	–	–
CC(C)S(=O)(=O)Oc1cc(Cl)cc(OC(=O)c2ccc(NC(=N)N)cc2)c1 [Example 76]	1.1	–	–
N=C(N)Nc1ccc(C(=O)Oc2cc(Cl)cc(OS(=O)(=O)c3ccccc3)c2)cc1 [Example 77]	0.8	–	–
CCS(=O)(=O)Oc1cc(C)cc(OC(=O)c2ccc(NC(=N)N)cc2)c1 [Example 78]	27	–	–
N=C(N)Nc1ccc(C(=O)Oc2cc(Cl)cc(C(N)=O)c2)cc1 [Example 79]	5.2	–	–
CN(C)C(=O)c1cccc(OC(=O)c2ccc(NC(=N)N)cc2)c1 [Example 80]	–	30	–

More lines, now with the values ahead:

IC50 [µM]	inhibition at 100 µM [%]	inhibition at 50 µg/mL (at 50 μg/ml (footnote 2), read-out: Inhibitory Effect on Elastase, Inhibition %) [%]	Structure (SMILES)
0.4	97	–	N=C(N)Nc1ccc(C(=O)Oc2cc(Cl)cc(Cl)c2)cc1 [Example 1, p-guanidinobenzoic acid 3,5-dichlorophenyl ester methanesulfonate]
–	20.2	–	Cc1ccccc1OC(=O)c1ccc(NC(=N)N)cc1 [Example 2]
–	45.6	–	Cc1cccc(OC(=O)c2ccc(NC(=N)N)cc2)c1 [Example 3]
–	5.9	–	Cc1cccc(OC(=O)c2ccc(NC(=N)N)cc2)c1C [Example 4]
–	39.6	–	CCc1cccc(OC(=O)c2ccc(NC(=N)N)cc2)c1 [Example 6]
100	50.9	–	COc1cccc(OC(=O)c2ccc(NC(=N)N)cc2)c1 [Example 8]
4	90.7	–	COC(=O)c1cccc(OC(=O)c2ccc(NC(=N)N)cc2)c1Cl [Example 14]
98	55.6	–	COC(=O)c1ccc(OC(=O)c2ccc(NC(=N)N)cc2)c(Cl)c1 [Example 15]
–	42	–	COC(=O)c1ccc(OC(=O)c2ccc(NC(=N)N)cc2)cc1Cl [Example 16]
50	–	–	COC(=O)Cc1cccc(OC(=O)c2ccc(NC(=N)N)cc2)c1Cl [Example 24]
40	76.3	–	N=C(N)Nc1ccc(C(=O)Oc2ccccc2F)cc1 [Example 28]
21	81.1	–	N=C(N)Nc1ccc(C(=O)Oc2cccc(F)c2)cc1 [Example 29]
–	10.7	–	N=C(N)Nc1ccc(C(=O)Oc2ccc(F)cc2)cc1 [Example 30]
3.7	–	–	N=C(N)Nc1ccc(C(=O)Oc2c(F)cccc2F)cc1 [Example 31]
3.7	–	–	N=C(N)Nc1ccc(C(=O)Oc2cccc(F)c2F)cc1 [Example 32]
27	76.8	–	N=C(N)Nc1ccc(C(=O)Oc2ccccc2Cl)cc1 [Example 34]
8	87.6	–	N=C(N)Nc1ccc(C(=O)Oc2cccc(Cl)c2)cc1 [Example 35]
–	–	14.9	N=C(N)Nc1ccc(C(=O)Oc2ccc(Cl)cc2)cc1 [Example 36]
2	89.9	–	N=C(N)Nc1ccc(C(=O)Oc2c(Cl)cccc2Cl)cc1 [Example 38]
–	39	–	COc1cc(OC(=O)c2ccc(NC(=N)N)cc2)ccc1Cl [Example 40]
13	–	–	COc1ccc(Cl)c(OC(=O)c2ccc(NC(=N)N)cc2)c1 [Example 41]
16	82.1	–	N=C(N)Nc1ccc(C(=O)Oc2ccccc2Br)cc1 [Example 42]
6	91.7	–	N=C(N)Nc1ccc(C(=O)Oc2cccc(Br)c2)cc1 [Example 43]
–	11.2	–	N=C(N)Nc1ccc(C(=O)Oc2ccc(I)cc2)cc1 [Example 44]
–	4.1	–	CC(=O)c1cccc(OC(=O)c2ccc(NC(=N)N)cc2)c1 [Example 48]
1.8	–	–	CC(=O)c1ccc(Cl)cc1OC(=O)c1ccc(NC(=N)N)cc1 [Example 51]
6	–	–	CNC(=O)c1cccc(OC(=O)c2ccc(NC(=N)N)cc2)c1Cl [Example 81]
